Among the data in US20110105509A1 (Wyeth, LLC, priority 2009, published 2011) are IC50 values, retold here.

For orientation: IC50 means the concentration needed to halve the response being measured. Low readings indicate inhibition by little substance, high ones a need for much substance.

The assay deals with T1, CRTH2 (Homo sapiens, UniProt Q9Y5Y4).
T1 construct: expressed in transfected cells; host or cells: CHO cells
T1 sequence (Q9Y5Y4 1-395): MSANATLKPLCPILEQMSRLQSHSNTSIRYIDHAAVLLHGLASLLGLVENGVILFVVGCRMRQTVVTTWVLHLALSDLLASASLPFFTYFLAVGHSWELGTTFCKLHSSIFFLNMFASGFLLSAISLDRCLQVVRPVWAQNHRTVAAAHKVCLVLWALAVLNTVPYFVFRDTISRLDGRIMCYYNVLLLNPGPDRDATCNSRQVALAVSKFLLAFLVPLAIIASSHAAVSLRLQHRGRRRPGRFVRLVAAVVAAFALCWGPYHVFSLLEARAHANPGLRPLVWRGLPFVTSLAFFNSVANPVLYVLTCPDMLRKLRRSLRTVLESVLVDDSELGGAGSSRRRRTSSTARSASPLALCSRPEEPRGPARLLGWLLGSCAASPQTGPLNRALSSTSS
Briefly: FRET based competitive immunoassay (cAMP) in CRTH2 expressing CHO cells. The class given is cell-based. The following applies: CRTH2 expressing CHO cells incubated with forskolin and PGD2; Eu3+ cryptate-labeled anti-cAMP and d2-labeled cAMP. On the procedure: FRET Assay: To evaluate potency compounds were tested in a FRET based competitive immunoassay in which CRTH2 expressing CHO cells were incubated in the presence of forskolin and PGD2 along with Eu3+ cryptate-labeled anti-cAMP and d2-labeled cAMP.
With `Cc1c(CC2=NN(Cc3ccccc3)C(=O)CC2)c2cc(F)ccc2n1CC(=O)O` [Example 78, 2-(3-((1-Benzyl-6-oxo-1,4,5,6-tetrahydropyridazin-3-yl)methyl)-5-fluoro-2-methyl-1H-indol-1-yl)acetic acid], the IC50 turned out to be 0.002 µM.
Then `Cc1c(-c2ccc(=O)n(Cc3nc4ccccc4s3)n2)c2cc(Cl)ccc2n1CC(=O)O` [Example 141, 2-(3-(1-(benzo[d]thiazol-2-ylmethyl)-6-oxo-1,6-dihydropyridazin-3-yl)-5-chloro-2-methyl-1H-indol-1-yl)acetic acid], with 0.046 µM.
For `Cc1c(CC2=NN(Cc3ccc(F)cc3F)C(=O)CC2)c2cc(F)ccc2n1CC(=O)O` [Example 56, 2-(3-((1-(2,4-Difluorobenzyl)-6-oxo-1,4,5,6-tetrahydropyridazin-3-yl)methyl)-5-fluoro-2-methyl-1H-indol-1-yl)acetic acid], the half-maximal inhibitory concentration (IC50) was 0.005 µM.
The result for `Cc1c(-c2nn(Cc3ccc(Cl)c(F)c3)c(=O)c3ccccc23)c2cc(F)ccc2n1CC(=O)O` [Example 5, 2-(3-(3-(4-Chloro-3-fluorobenzyl)-4-oxo-3,4-dihydrophthalazin-1-yl)-5-fluoro-2-methyl-1H-indol-1-yl)acetic acid] reads 0.01 µM; that for `Cc1c(-c2ccc(=O)n(C(C)C)n2)c2ccccc2n1CC(=O)O` [Example 181, 2-(3-(1-isopropyl-6-oxo-1,6-dihydropyridazin-3-yl)-2-methyl-1H-indol-1-yl)-acetic acid], 0.92 µM.
`Cc1c(-c2cn(CC(F)(F)F)c(=O)c3ccccc23)c2cc(F)ccc2n1CC(=O)O` [Example 250, 2-(5-fluoro-2-methyl-3-(1-oxo-2-(2,2,2-trifluoroethyl)-1,2-dihydroiso-quinolin-4-yl)-1H-indol-1-yl)acetic acid]: the IC50 was determined as 0.004 µM.
As to `Cc1c(Cc2cn(Cc3ccccc3)c(=O)c3ccccc23)c2ccccc2n1CC(=O)O` [Example 86, 2-(3-((2-benzyl-1-oxo-1,2-dihydroisoquinolin-4-yl)methyl)-2-methyl-1H-indol-1-yl)acetic acid], the IC50 came out at 0.197 µM.
The result for `Cc1c(-c2ccc(=O)n(Cc3ccccc3)c2)c2ccccc2n1CC(=O)O` [Example 263, 2-(3-(1-benzyl-6-oxo-1,6-dihydropyridin-3-yl)-2-methyl-1H-indol-1-yl)acetic acid] reads 0.042 µM.
Regarding `Cc1c(-c2nn(Cc3cccc(F)c3F)c(=O)c3ccccc23)c2cc(Cl)ccc2n1CC(=O)O` [Example 97, 2-(5-chloro-3-(3-(2,3-difluorobenzyl)-4-oxo-3,4-dihydrophthalazin-1-yl)-2-methyl-1H-indol-1-yl)acetic acid], the IC50 is 0.007 µM.
In turn, `Cc1c(-c2ccc(=O)n(CC3CC3)n2)c2cc(F)ccc2n1CC(=O)O` [Example 161, 2-(3-(1-(cyclopropylmethyl)-6-oxo-1,6-dihydropyridazin-3-yl)-5-fluoro-2-methyl-1H-indol-1-yl)acetic acid] gave an IC50 of 0.023 µM.
The result for `Cc1c(-c2ccc(=O)n(Cc3ccc(F)cc3F)c2)c2ccccc2n1CC(=O)O` [Example 275, 2-(3-(1-(2,4-difluorobenzyl)-6-oxo-1,6-dihydropyridin-3-yl)-2-methyl-1H-indol-1-yl)acetic acid] reads 0.03 µM; that for `Cc1c(-c2ccc(=O)n(Cc3cccc(F)c3F)c2)c2cc(Cl)ccc2n1CC(=O)O` [Example 292, 2-(5-Chloro-3-(1-(2,3-difluorobenzyl)-6-oxo-1,6-dihydropyridin-3-yl)-2-methyl-1H-indol-1-yl)acetic acid], 0.011 µM; that for `Cc1c(Cc2ccc(=O)n(Cc3cc(F)c(F)cc3F)c2)c2ccccc2n1CC(=O)O` [Example 24], 0.028 µM.
Then `Cc1c(-c2nn(Cc3nnc[nH]3)c(=O)c3ccccc23)c2cc(F)ccc2n1CC(=O)O` [Example 270, 2-(3-(3-((4H-1,2,4-triazol-3-yl)methyl)-4-oxo-3,4-dihydrophthalazin-1-yl)-5-fluoro-2-methyl-1H-indol-1-yl)acetic acid], with above 5.5 µM; and `CCn1nc(-c2c(C)n(CC(=O)O)c3ccc(Cl)cc23)c2ccccc2c1=O` [Example 106, 2-(5-Chloro-3-(3-ethyl-4-oxo-3,4-dihydrophthalazin-1-yl)-2-methyl-1H-indol-1-yl)acetic acid], with 0.023 µM.
The molecule `CCC(=O)Cn1nc(-c2c(C)n(CC(=O)O)c3ccc(F)cc23)c2ccccc2c1=O` [Example 133, 2-(5-fluoro-2-methyl-3-(4-oxo-3-(2-oxobutyl)-3,4-dihydrophthalazin-1-yl)-1H-indol-1-yl)acetic acid] showed an IC50 of 0.008 µM.
The molecule `Cc1c(-c2nn(Cc3ccccc3)c(=O)c3ccccc23)c2cc(F)cc(S(C)(=O)=O)c2n1CC(=O)O` [Example 237, 2-(3-(3-benzyl-4-oxo-3,4-dihydrophthalazin-1-yl)-5-fluoro-2-methyl-7-(methyl-sulfonyl)-1H-indol-1-yl)acetic acid] showed an IC50 above 1 µM.
Then `Cc1c(-c2nn(CCOc3ccccc3)c(=O)c3ccccc23)c2ccccc2n1CC(=O)O` [Example 223, 2-(2-methyl-3-(4-oxo-3-(2-phenoxyethyl)-3,4-dihydrophthalazin-1-yl)-1H-indol-1-yl)acetic acid], with 0.006 µM.
The molecule `Cc1c(-c2ccc(=O)n(CCC(C(F)(F)F)C(F)(F)F)c2)c2cc(F)ccc2n1CC(=O)O` [Example 316, 2-(5-fluoro-2-methyl-3-(6-oxo-1-(4,4,4-trifluoro-3-(trifluoromethyl)butyl)-1,6-dihydropyridin-3-yl)-1H-indol-1-yl)acetic acid] displayed an IC50 of 0.039 µM.
The result for `Cc1c(-c2nn(CC(O)(C(F)(F)F)C(F)(F)F)c(=O)c3ccccc23)c2cc(F)ccc2n1CC(=O)O` [Example 131, 2-(5-fluoro-2-methyl-3-(4-oxo-3-(3,3,3-trifluoro-2-hydroxy-2-(trifluoro-methyl)propyl)-3,4-dihydrophthalazin-1-yl)-1H-indol-1-yl)acetic acid] reads 0.054 µM; that for `Cc1c(-c2ccc(=O)n(Cc3ccccc3C(F)(F)F)n2)c2cc(Cl)ccc2n1CC(=O)O` [Example 211, 2-(5-chloro-2-methyl-3-(6-oxo-1-(2-(trifluoromethyl)benzyl)-1,6-dihydro-pyridazin-3-yl)-1H-indol-1-yl)acetic acid], 0.022 µM.
The result for `Cc1c(Cc2ccc(=O)n(Cc3cccc(F)c3)n2)c2cc(F)ccc2n1CC(=O)O` [Example 341, (3-{[1-(3-fluorobenzyl)-6-oxo-1,6-dihydropyridazin-3-yl]methyl}-5-fluoro-2-methyl-1H-indol-1-yl)acetic acid] reads 0.033 µM; that for `Cc1c(CC2=NN(CC(F)(F)F)C(=O)CC2)c2cc(F)ccc2n1CC(=O)O` [Example 57, 2-(5-Fluoro-2-methyl-3-((6-oxo-1-(2,2,2-trifluoroethyl)-1,4,5,6-tetrahydropyridazin-3-yl)-methyl)-1H-indol-1-yl)acetic acid], 0.005 µM.
The result for `Cc1c(-c2ccc(=O)n(Cc3ccccc3)c2)c2cc(F)ccc2n1CC(=O)O` [Example 265, 2-(3-(1-benzyl-6-oxo-1,6-dihydropyridin-3-yl)-5-fluoro-2-methyl-1H-indol-1-yl)acetic acid] reads 0.005 µM; that for `Cc1c(-c2ccc(=O)n(Cc3cccc(F)c3F)c2)c2cc(F)ccc2n1CCO` [Example 305, 1-(2,3-difluorobenzyl)-5-(5-fluoro-1-(2-hydroxyethyl)-2-methyl-1H-indol-3-yl)-pyridin-2(1H)-one], above 2 µM.
The molecule `Cc1c(Cc2ccc(=O)n(Cc3ccc(C(O)(C(F)(F)F)C(F)(F)F)cc3)n2)c2cc(F)ccc2n1CC(=O)O` [Example 239, 2-(5-fluoro-3-((1-(4-(1,1,1,3,3,3-hexafluoro-2-hydroxypropan-2-yl)benzyl)-6-oxo-1,6-dihydropyridazin-3-yl)methyl)-2-methyl-1H-indol-1-yl)acetic acid] gave an IC50 of 0.007 µM.
The result for `Cc1c(-c2ccc(=O)n(Cc3ccccc3)n2)c2cc(F)cc(Cl)c2n1CC(=O)O` [Example 231, 2-(3-(1-benzyl-6-oxo-1,6-dihydropyridazin-3-yl)-7-chloro-5-fluoro-2-methyl-1H-indol-1-yl)acetic acid] reads 0.401 µM.
Then `Cc1c(-c2ccc(=O)n(CCC(F)(F)F)c2)c2cc(F)ccc2n1CC(=O)O` [Example 307, 2-(5-fluoro-2-methyl-3-(6-oxo-1-(3,3,3-trifluoropropyl)-1,6-dihydropyridin-3-yl)-1H-indol-1-yl)acetic acid], with 0.028 µM; and `Cc1c(-c2nn(C)c(=O)c3ccccc23)c2ccccc2n1CC(=O)O` [Example 174, 2-(2-methyl-3-(3-methyl-4-oxo-3,4-dihydrophthalazin-1-yl)-1H-indol-1-yl)-acetic acid], with 0.98 µM; and `Cc1c(-c2ccc(=O)n(Cc3cccc(F)c3F)c2)c2cc(F)ccc2n1Cc1nn[nH]n1` [Example 311, 5-(1-((2H-tetrazol-5-yl)methyl)-5-fluoro-2-methyl-1H-indol-3-yl)-1-(2,3-difluoro-benzyl)pyridin-2(1H)-one], with above 1 µM.
Then `Cc1c(-c2nn(Cc3ccccc3)c(=O)c3ccccc23)c2ccccc2n1CC(=O)N(C)C` [Example 48, 2-(3-(3-Benzyl-4-oxo-3,4-dihydrophthalazin-1-yl)-2-methyl-1H-indol-1-yl)-N,N-dimethylacetamide], with above 2 µM.
